Source: patent US20230310428A1, “EGFR INHIBITOR AND PREPARATION METHOD AND USE THEREOF” (HONGYUN BIOTECH CO., LTD., priority 2020, published 2023)
pIC50: −log10 of the molar value. Where two headings read alike, the source gives them in different places.

Legend:
Assay in all cases: Growth inhibitory activity of compounds on BaF3 cell lines stably transfected with kinase (MTS, 48 h)
Format in all cases: cell-based
[1] = target: T1, various mutants of kinase EGFR (BaF3 cell lines stably transfected with kinase) (Homo sapiens, UniProt P00533)
T1 construct: other: BaF3 cells stably transfected with EGFR Δ19Del; MTS, 48 h; other: BaF3 cell line stably transfected with EGFR Δ19Del
T1 sequence (P00533 with tags, fused parts or gaps DEL746-750): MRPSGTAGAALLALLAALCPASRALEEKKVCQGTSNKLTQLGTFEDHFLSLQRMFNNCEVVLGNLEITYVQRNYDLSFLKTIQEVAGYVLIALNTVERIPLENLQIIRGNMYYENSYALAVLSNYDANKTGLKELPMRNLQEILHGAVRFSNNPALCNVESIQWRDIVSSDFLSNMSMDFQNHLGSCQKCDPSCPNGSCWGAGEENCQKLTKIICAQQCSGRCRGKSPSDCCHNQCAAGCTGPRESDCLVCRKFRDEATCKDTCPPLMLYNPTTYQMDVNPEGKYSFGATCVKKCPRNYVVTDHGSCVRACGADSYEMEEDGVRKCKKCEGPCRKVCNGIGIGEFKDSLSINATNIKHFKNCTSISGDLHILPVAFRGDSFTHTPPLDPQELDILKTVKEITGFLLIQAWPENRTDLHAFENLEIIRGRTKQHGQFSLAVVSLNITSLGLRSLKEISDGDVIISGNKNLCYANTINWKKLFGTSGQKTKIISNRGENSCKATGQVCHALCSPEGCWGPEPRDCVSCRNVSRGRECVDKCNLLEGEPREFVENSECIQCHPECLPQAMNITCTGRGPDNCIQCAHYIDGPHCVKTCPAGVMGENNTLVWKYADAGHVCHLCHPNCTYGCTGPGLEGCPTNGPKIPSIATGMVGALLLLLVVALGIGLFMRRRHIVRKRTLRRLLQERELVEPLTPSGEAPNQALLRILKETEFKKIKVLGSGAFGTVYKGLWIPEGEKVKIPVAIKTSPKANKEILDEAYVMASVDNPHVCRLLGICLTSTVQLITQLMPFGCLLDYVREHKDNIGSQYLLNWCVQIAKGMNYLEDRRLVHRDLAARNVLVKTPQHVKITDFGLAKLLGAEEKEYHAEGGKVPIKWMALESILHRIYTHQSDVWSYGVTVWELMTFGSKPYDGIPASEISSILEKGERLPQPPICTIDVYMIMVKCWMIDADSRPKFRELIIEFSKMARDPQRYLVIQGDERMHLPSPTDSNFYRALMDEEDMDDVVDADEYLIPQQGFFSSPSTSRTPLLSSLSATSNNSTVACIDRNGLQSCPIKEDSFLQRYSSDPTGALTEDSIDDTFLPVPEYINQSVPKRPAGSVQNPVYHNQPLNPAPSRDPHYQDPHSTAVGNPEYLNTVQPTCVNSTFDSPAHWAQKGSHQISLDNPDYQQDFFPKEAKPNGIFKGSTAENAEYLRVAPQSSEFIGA
Method in brief: (§1)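 BaF3 cells stably transfected with EGFR mutants were exposed for 48 h at 37°C to 8 compound concentrations (top 10 µM, 1/3 dilutions, 0.1% DMSO). Growth was read by MTS at 490 nm after 1-4 h, in duplicate; IC50 was derived from inhibition rates versus DMSO control.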

[2] = target: T2, various mutants of kinase EGFR (BaF3 cell lines stably transfected with kinase) (Homo sapiens, UniProt P00533, C797S/L858R/T790M)
T2 construct: expressed in transfected cells; host or cells: BaF3
T2 sequence (P00533 25-1210 T790M/C797S/L858R): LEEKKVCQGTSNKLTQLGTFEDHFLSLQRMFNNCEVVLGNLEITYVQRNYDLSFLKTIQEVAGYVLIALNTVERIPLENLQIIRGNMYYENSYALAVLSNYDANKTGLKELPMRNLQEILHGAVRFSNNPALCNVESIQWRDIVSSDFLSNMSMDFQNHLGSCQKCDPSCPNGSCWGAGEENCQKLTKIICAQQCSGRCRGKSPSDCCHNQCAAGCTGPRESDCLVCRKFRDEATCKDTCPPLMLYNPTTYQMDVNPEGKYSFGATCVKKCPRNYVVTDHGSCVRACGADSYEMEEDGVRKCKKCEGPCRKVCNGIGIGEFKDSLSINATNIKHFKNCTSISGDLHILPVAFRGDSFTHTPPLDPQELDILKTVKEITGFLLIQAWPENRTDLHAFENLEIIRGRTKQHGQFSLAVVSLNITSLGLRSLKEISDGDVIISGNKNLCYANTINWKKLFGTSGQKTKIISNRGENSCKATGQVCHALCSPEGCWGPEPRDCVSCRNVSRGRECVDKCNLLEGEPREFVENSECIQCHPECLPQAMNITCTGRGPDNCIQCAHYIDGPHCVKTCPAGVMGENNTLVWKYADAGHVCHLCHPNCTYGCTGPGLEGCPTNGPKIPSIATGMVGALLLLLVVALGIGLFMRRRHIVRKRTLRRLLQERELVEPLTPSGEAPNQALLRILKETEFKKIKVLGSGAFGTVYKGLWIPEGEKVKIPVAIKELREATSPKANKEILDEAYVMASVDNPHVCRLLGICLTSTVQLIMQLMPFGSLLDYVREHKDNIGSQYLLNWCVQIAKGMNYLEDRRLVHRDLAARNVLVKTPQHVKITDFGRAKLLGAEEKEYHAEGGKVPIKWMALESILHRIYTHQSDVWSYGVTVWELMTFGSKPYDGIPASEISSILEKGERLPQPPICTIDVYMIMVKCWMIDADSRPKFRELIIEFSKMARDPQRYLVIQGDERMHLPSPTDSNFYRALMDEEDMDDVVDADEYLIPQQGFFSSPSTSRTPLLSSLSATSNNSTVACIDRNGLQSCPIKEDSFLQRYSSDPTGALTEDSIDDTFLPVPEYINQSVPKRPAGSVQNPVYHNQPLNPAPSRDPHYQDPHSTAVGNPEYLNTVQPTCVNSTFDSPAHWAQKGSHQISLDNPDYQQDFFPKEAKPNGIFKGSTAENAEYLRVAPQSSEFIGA
Method in brief: as §1

[3] = target: T3, various mutants of kinase EGFR (BaF3 cell lines stably transfected with kinase) (Homo sapiens, UniProt P00533, L858R)
T3 construct: expressed in transfected cells; host or cells: BaF3
T3 sequence (P00533 25-1210 L858R): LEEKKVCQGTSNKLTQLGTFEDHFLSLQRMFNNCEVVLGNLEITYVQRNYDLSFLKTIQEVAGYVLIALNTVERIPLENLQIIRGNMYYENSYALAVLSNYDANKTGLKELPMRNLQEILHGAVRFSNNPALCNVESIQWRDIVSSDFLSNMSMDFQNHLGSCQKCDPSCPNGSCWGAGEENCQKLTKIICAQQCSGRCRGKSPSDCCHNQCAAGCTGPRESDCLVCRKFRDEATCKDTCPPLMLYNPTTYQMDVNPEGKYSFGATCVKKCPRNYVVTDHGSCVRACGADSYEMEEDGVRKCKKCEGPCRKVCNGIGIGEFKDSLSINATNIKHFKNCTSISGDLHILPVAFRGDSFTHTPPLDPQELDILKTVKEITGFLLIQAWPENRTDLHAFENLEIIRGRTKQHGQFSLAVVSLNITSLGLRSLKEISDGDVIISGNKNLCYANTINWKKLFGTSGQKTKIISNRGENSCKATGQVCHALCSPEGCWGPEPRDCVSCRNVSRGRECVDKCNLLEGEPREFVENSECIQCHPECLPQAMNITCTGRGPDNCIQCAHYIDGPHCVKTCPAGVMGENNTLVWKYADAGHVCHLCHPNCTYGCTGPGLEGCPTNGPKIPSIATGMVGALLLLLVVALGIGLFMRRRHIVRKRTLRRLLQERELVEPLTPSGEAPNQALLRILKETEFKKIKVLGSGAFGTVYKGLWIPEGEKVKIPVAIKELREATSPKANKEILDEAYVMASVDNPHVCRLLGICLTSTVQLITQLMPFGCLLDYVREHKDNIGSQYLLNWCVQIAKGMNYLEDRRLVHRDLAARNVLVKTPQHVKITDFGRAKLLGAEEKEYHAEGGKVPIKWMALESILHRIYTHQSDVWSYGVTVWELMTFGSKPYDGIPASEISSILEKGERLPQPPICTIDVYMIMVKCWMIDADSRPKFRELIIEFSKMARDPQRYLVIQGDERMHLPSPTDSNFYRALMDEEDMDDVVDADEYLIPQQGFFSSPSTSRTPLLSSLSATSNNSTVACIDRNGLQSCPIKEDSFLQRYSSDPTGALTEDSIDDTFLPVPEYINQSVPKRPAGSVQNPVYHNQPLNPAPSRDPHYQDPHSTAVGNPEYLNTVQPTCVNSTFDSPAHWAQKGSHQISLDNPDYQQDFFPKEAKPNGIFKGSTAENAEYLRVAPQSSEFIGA
Method in brief: as §1

[4] = target: T4, various mutants of kinase EGFR (BaF3 cell lines stably transfected with kinase) (Homo sapiens, UniProt P00533, L858R/T790M)
T4 construct: expressed in transfected cells; host or cells: BaF3
Method in brief: as §1

[5] = target: T5, various mutants of kinase EGFR (BaF3 cell lines stably transfected with kinase) (Homo sapiens, UniProt P00533, T790M/C797S, form not given)
T5 construct: other: BaF3 cells stably transfected with EGFR Δ19Del/T790M/C797S; MTS, 48; other: BaF3 cell line stably transfected with EGFR Δ19Del/T790M/C7
T5 sequence (P00533 with tags, fused parts or gaps DEL746-750/T790M/C797S, form open): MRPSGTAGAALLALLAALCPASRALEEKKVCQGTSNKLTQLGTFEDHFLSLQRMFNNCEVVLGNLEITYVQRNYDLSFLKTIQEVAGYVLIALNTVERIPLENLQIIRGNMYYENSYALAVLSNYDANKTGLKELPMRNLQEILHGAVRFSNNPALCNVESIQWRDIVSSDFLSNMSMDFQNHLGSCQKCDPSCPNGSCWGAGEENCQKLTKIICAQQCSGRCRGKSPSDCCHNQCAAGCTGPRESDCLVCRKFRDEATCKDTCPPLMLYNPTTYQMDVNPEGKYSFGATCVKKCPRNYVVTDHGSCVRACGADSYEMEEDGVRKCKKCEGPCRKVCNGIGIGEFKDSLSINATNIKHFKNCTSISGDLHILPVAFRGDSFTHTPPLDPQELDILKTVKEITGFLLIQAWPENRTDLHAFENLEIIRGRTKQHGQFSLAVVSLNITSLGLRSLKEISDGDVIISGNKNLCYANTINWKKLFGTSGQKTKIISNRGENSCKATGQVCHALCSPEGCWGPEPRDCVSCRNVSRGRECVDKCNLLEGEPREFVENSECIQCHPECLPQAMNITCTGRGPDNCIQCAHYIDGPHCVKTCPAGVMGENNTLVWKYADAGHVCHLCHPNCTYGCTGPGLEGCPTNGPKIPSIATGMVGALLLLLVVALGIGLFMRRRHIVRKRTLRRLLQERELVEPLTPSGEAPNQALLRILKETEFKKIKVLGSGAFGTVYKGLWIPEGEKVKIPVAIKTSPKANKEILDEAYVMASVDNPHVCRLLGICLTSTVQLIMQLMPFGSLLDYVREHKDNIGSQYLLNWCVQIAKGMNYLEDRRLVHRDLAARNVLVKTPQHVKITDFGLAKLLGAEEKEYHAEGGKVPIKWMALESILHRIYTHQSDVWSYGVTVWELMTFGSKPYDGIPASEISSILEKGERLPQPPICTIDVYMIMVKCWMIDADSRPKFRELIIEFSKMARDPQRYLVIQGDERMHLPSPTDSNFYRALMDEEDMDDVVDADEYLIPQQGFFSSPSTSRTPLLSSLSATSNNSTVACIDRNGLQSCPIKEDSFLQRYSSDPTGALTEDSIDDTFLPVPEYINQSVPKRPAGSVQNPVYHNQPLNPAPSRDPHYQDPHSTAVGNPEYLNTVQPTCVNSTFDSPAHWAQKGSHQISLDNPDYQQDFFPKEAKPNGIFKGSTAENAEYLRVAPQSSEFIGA
Method in brief: as §1

[6] = target: T6, various mutants of kinase EGFR (BaF3 cell lines stably transfected with kinase) (Homo sapiens, UniProt P00533, T790M, form not given)
T6 construct: other: BaF3 cells stably transfected with EGFR Δ19Del/T790M; MTS, 48 h; other: BaF3 cell line stably transfected with EGFR Δ19Del/T790M; MTS, 48
Method in brief: as §1

[7] = BaF3 cells stably transfected with EGFR Δ19Del, read-out: IC50, growth inhibition, Δ19Del
[8] = BaF3 cells stably transfected with EGFR L858R/T790M/C797S, read-out: IC50, growth inhibition, L858R/T790M/C797S
[9] = BaF3 cells stably transfected with EGFR L858R, read-out: IC50, growth inhibition, L858R
[10] = BaF3 cells stably transfected with EGFR L858R/T790M, read-out: IC50, growth inhibition, L858R/T790M
[11] = BaF3 cells stably transfected with EGFR Δ19Del/T790M/C797S, read-out: IC50, growth inhibition, Δ19Del/T790M/C797S
[12] = BaF3 cells stably transfected with EGFR Δ19Del/T790M, read-out: IC50, growth inhibition, Δ19Del/T790M
[13] = BaF3 cell line stably transfected with EGFR Δ19Del, read-out: Δ19Del growth inhibitory activity IC50
[14] = BaF3 cell line stably transfected with EGFR L858R/T790M/C797S, read-out: L858R/T790M/ C797S growth inhibitory activity IC50
[15] = BaF3 cell line stably transfected with EGFR L858R, read-out: L858R growth inhibitory activity IC50
[16] = BaF3 cell line stably transfected with EGFR L858R/T790M, read-out: L858R/ T790M growth inhibitory activity IC50
[17] = BaF3 cell line stably transfected with EGFR Δ19Del/T790M/C797S, read-out: Δ19Del/T790M/ C797S growth inhibitory activity IC50
[18] = BaF3 cell line stably transfected with EGFR Δ19Del/T790M, read-out: Δ19Del/ T790M growth inhibitory activity IC50

Compound | pIC50 [1, 7] | pIC50 [2, 8] | pIC50 [3, 9] | pIC50 [4, 10] | pIC50 [5, 11] | pIC50 [6, 12] | pIC50 [1, 13] | pIC50 [2, 14] | pIC50 [3, 15] | pIC50 [4, 16] | pIC50 [5, 17] | pIC50 [6, 18]
COc1nc(N2CCN(C)CC2)ccc1Nc1ncc(Br)c(Nc2ccc3nccnc3c2N(C)S(C)(=O)=O)n1 [Compound I-55] | 6.30 to 7.30 | 6.30 to 7.30 | 6.30 to 7.30 | 6.30 to 7.30 | 6.30 to 7.30 | 6.30 to 7.30 | – | – | – | – | – | –
CCc1cc(Nc2ncc(C(F)(F)F)c(Nc3ccc4nccnc4c3N(C)S(C)(=O)=O)n2)c(OC(F)(F)F)cc1N1CCC(N2CCN(C)CC2)CC1 [Compound I-201] | 6.30 to 7.30 | 6.30 to 7.30 | 6.30 to 7.30 | 6.30 to 7.30 | ≥ 7.30 | 6.30 to 7.30 | – | – | – | – | – | –
COc1cc(N2CCN(C)CC2)c(C)cc1Nc1ncc(F)c(Nc2ccc3nccnc3c2N(C)S(C)(=O)=O)n1 [Compound I-185] | 6.30 to 7.30 | 6.30 to 7.30 | ≥ 7.30 | 6.30 to 7.30 | ≥ 7.30 | 6.30 to 7.30 | – | – | – | – | – | –
COc1cc(N2CCC(N(C)C)CC2)c(C)cc1Nc1ncc([N+](=O)[O-])c(Nc2ccc3nccnc3c2N(C)S(C)(=O)=O)n1 [Compound I-192] | ≥ 7.30 | ≥ 7.30 | 6.30 to 7.30 | ≥ 7.30 | ≥ 7.30 | ≥ 7.30 | – | – | – | – | – | –
CCc1cc(Nc2ncc(F)c(Nc3ccc4nccnc4c3N(C)S(C)(=O)=O)n2)c(OC(F)(F)F)cc1N1CCC(N2CCN(C)CC2)CC1 [Compound I-179] | 6.30 to 7.30 | 6.30 to 7.30 | 6.30 to 7.30 | 6.30 to 7.30 | ≥ 7.30 | 6.30 to 7.30 | – | – | – | – | – | –
COc1cc(N2CCC(N3CCN(C)CC3)CC2)c(CC2CC2)cc1Nc1ncc([N+](=O)[O-])c(Nc2ccc3nccnc3c2N(C)S(C)(=O)=O)n1 [Compound I-191] | 6.30 to 7.30 | 6.30 to 7.30 | 6.30 to 7.30 | 6.30 to 7.30 | ≥ 7.30 | 6.30 to 7.30 | – | – | – | – | – | –
COc1cc(N2CCC(N(C)C)CC2)c(C)cc1Nc1ncc(F)c(Nc2ccc3nccnc3c2N(C)S(C)(=O)=O)n1 [Compound I-183] | ≥ 7.30 | ≥ 7.30 | ≥ 7.30 | ≥ 7.30 | ≥ 7.30 | 6.30 to 7.30 | – | – | – | – | – | –
CCc1cc(Nc2ncc(Br)c(Nc3ccc4nccnc4c3N(C)S(C)(=O)=O)n2)c(OC)cc1N1CCN(C)CC1 [Compound I-15] | ≥ 7.30 | ≥ 7.30 | ≥ 7.30 | ≥ 7.30 | ≥ 7.30 | ≥ 7.30 | – | – | – | – | – | –
CCc1cc(Nc2ncc(Cl)c(Nc3ccc4nccnc4c3N(CC)S(C)(=O)=O)n2)c(OC)cc1N1CCC(N(C)C)C1 (stereo not drawn) [Compound I-113] | 6.30 to 7.30 | ≥ 7.30 | ≥ 7.30 | ≥ 7.30 | ≥ 7.30 | ≥ 7.30 | – | – | – | – | – | –
C=Cc1cc(Nc2ncc(Br)c(Nc3ccc4nccnc4c3N(C)S(C)(=O)=O)n2)c(OC(F)(F)F)cc1N1CCC(N2CCN(C)CC2)CC1 [Compound I-9] | ≥ 7.30 | ≥ 7.30 | ≥ 7.30 | ≥ 7.30 | ≥ 7.30 | ≥ 7.30 | – | – | – | – | – | –
CCc1cc(Nc2ncc(Br)c(Nc3ccc4nccnc4c3N(C)S(=O)(=O)C(F)(F)F)n2)c(OC)cc1N1CCC(N(C)C)C1 (stereo not drawn) [Compound I-128] | 5.60 to 6.30 | 6.30 to 7.30 | 5.60 to 6.30 | 6.30 to 7.30 | ≥ 7.30 | 6.30 to 7.30 | – | – | – | – | – | –

The next lines start with the values.

pIC50 [1, 7] | pIC50 [2, 8] | pIC50 [3, 9] | pIC50 [4, 10] | pIC50 [5, 11] | pIC50 [6, 12] | pIC50 [1, 13] | pIC50 [2, 14] | pIC50 [3, 15] | pIC50 [4, 16] | pIC50 [5, 17] | pIC50 [6, 18] | Compound
– | – | – | – | – | – | 6.30 to 7.30 | 5.60 to 6.30 | 6.30 to 7.30 | 6.30 to 7.30 | 5.60 to 6.30 | 6.30 to 7.30 | COc1cc(N2CCC(N3CCN(C)CC3)CC2)c(C(C)C)cc1Nc1nccc(Nc2ccc3nccnc3c2N(C)S(C)(=O)=O)n1 [Compound I-342]
– | – | – | – | – | – | 5.60 to 6.30 | 5.60 to 6.30 | 5.60 to 6.30 | 5.60 to 6.30 | 5.60 to 6.30 | 5.60 to 6.30 | COc1cc(N2CCC(N(C)C)C2)c(C)cc1Nc1nc(Nc2ccc3nccnc3c2N(C)S(C)(=O)=O)c2[nH]ccc2n1 (stereo not drawn) [II-1-35]
≥ 7.30 | ≥ 7.30 | ≥ 7.30 | ≥ 7.30 | ≥ 7.30 | ≥ 7.30 | – | – | – | – | – | – | CCN(c1c(Nc2nc(Nc3cc(C)c(N4CCC(N(C)C)C4)cc3OC)ncc2Cl)ccc2nccnc12)S(C)(=O)=O (stereo not drawn) [Compound I-233]
6.30 to 7.30 | 6.30 to 7.30 | 6.30 to 7.30 | 6.30 to 7.30 | 5.60 to 6.30 | 6.30 to 7.30 | – | – | – | – | – | – | CCN(c1c(Nc2nc(Nc3ccc(N4CCC(N5CCN(C)CC5)CC4)nc3OC)ncc2Br)ccc2nccnc12)S(C)(=O)=O [Compound I-296]
6.30 to 7.30 | ≥ 7.30 | 6.30 to 7.30 | 6.30 to 7.30 | ≥ 7.30 | 6.30 to 7.30 | – | – | – | – | – | – | COc1cc(N2CCC(N3CCN(C)CC3)CC2)c(CC2CC2)cc1Nc1ncc(Cl)c(Nc2ccc3nccnc3c2N(C2CC2)S(C)(=O)=O)n1 [Compound I-242]
6.30 to 7.30 | ≥ 7.30 | 6.30 to 7.30 | ≥ 7.30 | ≥ 7.30 | ≥ 7.30 | – | – | – | – | – | – | COc1cc(N2CCC(N(C)C)CC2)c(C)cc1Nc1ncc(Br)c(Nc2ccc3nccnc3c2N(C)S(=O)(=O)C2CC2)n1 [Compound I-221]
– | – | – | – | – | – | ≥ 7.30 | ≥ 7.30 | ≥ 7.30 | ≥ 7.30 | ≥ 7.30 | ≥ 7.30 | CCc1cc(Nc2ncc(Br)c(Nc3ccc4nccnc4c3NS(C)(=O)=O)n2)ccc1N1CCC(N2CCN(C)CC2)CC1 [Compound I-409]
6.30 to 7.30 | ≥ 7.30 | ≥ 7.30 | ≥ 7.30 | ≥ 7.30 | ≥ 7.30 | – | – | – | – | – | – | CCN(c1c(Nc2nc(Nc3ccc(N4CCC(N5CCN(C)CC5)CC4)cc3OC)ncc2Br)ccc2nccnc12)S(C)(=O)=O [Compound I-211]
6.30 to 7.30 | 5.60 to 6.30 | 6.30 to 7.30 | 6.30 to 7.30 | 6.30 to 7.30 | 6.30 to 7.30 | – | – | – | – | – | – | COc1cc(N2CCC(N3CCN(C)CC3)CC2)c(C(C)C)cc1Nc1ncc(C2CC2)c(Nc2ccc3nccnc3c2N(C)S(C)(=O)=O)n1 [Compound I-291]
– | – | – | – | – | – | 6.30 to 7.30 | 6.30 to 7.30 | 6.30 to 7.30 | 6.30 to 7.30 | ≥ 7.30 | 6.30 to 7.30 | COc1cc(N2CCC(N3CCN(C)CC3)CC2)ccc1Nc1ncc(C(C)C)c(Nc2ccc3nccnc3c2N(C)S(C)(=O)=O)n1 [Compound I-325]
– | – | – | – | – | – | 6.30 to 7.30 | ≥ 7.30 | 6.30 to 7.30 | ≥ 7.30 | ≥ 7.30 | 6.30 to 7.30 | COc1ccc(N2CCC(O)CC2)cc1Nc1ncc(Cl)c(Nc2ccc3nccnc3c2N(C)S(C)(=O)=O)n1 [Compound I-368]
– | – | – | – | – | – | 6.30 to 7.30 | ≥ 7.30 | 6.30 to 7.30 | 6.30 to 7.30 | ≥ 7.30 | 6.30 to 7.30 | COc1ccc(N2CCC(O)CC2)cc1Nc1nc(Nc2ccc3nccnc3c2N(C)S(C)(=O)=O)c2cc[nH]c2n1 [II-2-23]
– | – | – | – | – | – | 6.30 to 7.30 | 6.30 to 7.30 | 6.30 to 7.30 | 6.30 to 7.30 | ≥ 7.30 | ≥ 7.30 | CCc1cc(Nc2ncc(CC)c(Nc3ccc4nccnc4c3N(C)S(C)(=O)=O)n2)c(OC(F)(F)F)cc1N1CCC(N2CCN(C)CC2)CC1 [Compound I-321]
– | – | – | – | – | – | 6.30 to 7.30 | ≥ 7.30 | 6.30 to 7.30 | ≥ 7.30 | 6.30 to 7.30 | 6.30 to 7.30 | COc1ccc(N2CCC(N3CCCC3)CC2)cc1Nc1ncc(Br)c(Nc2ccc3nccnc3c2N(C)S(C)(=O)=O)n1 [Compound I-382]
– | – | – | – | – | – | ≥ 7.30 | ≥ 7.30 | ≥ 7.30 | ≥ 7.30 | ≥ 7.30 | 6.30 to 7.30 | CCc1cnc(Nc2cc(N3CCC(O)CC3)ccc2OC)nc1Nc1ccc2nccnc2c1N(C)S(C)(=O)=O [Compound I-363]
